Laboratory results from patent publication US20180353501A1 (Arvinas, Inc., priority 2017, published 2018).
Like-named read-outs stand apart in the source and are kept apart here.

Columns and labels:
[1] = Pharmacokinetics of intraperitoneal or intravenous injection in CD1 mice (plasma, LC/MS/MS); assay type: in vivo; details: for concentration at 0.25 h / concentration at 0.5 h / concentration at 1 h / concentration at 2 h / concentration at 4 h / concentration at 8 h / concentration at 24 h / concentration at 0.033 h / concentration at 0.083 h: male, CD1, mouse, plasma
Description: Pharmacokinetics of Intraperitoneal or Intravenous Injection of Example 1 or Example 2.
The pharmacokinetics of Example 1 and 2 was examined for intraperitoneal and intravenous administration. The desired serial concentrations of working solutions were achieved by diluting stock solution (1 mg/mL in DMSO) of analyte with methanol. In particular, 20 μL of working solutions (1, 2, 5, 10, 50, 100, 500, 1000, 2000 ng/mL) were added to 20 μL of the blank CD1 mice plasma to achieve calibration standards of 1-2000 ng/mL (1, 2, 5, 10, 50, 100, 500, 1000, 2000 ng/mL) in a total volume of 40 pt. Dose of IV and IP were diluted by 1000 fold and 10000 with methanol, 20 μL of the diluted dose solutions were added to 20 μL of the blank CD1 mice plasma to achieve dose samples. Next, 40 μL standards and 40 μL dose samples were added to 20 μL of assay Internal Standard (100 ng/mL) and 200 μL of acetonitrile for precipitating protein respectively. Then the samples were vortexed for 30 seconds. After centrifugation at 4 degree Celsius, 4000 rpm for 15 min, the supernatant was diluted 3 times with water. Then, 10 μL of the diluted supernatant was injected into the LC/MS/MS system for quantitative analysis.
Examples 1 and 2 were administered intravenously (5 second injection of 10% HP-b-CD and 40 mM sodium acetate and 40 mM NaCl in water, pH4.5) or intraperitoneally (5% EtOH and 5% Solutol HS15 in D5W(ESD-2)) to 6-8 week old male CD1 mice (3 mice per treatment group for a total of 12 mice) at the time points indicated below in Table 3. The mice had free access to food and water.
Dorsal metatarsal vein samples (30 μL), except that the final sample was acquired via a heart puncture, were taken from the mice at the same the administration time points as shown in Table 2.
The data for Example 1 is shown below in FIG. 5 and Tables 5 (FIG. 6), 6 and 7. The data for Example 2 is shown in FIG. 7 and Tables 8 (FIG. 8), 9, and 10.

[2] = biological target: T1, cMET (Homo sapiens, UniProt P08581); assay: Western blot examination of protein degradation, MDA-MB-231 cells; assay type: cell-based; details: 24 hours
T1 construct: endogenous in cells; host or cells: MDA-MB-231
T1 sequence (P08581 25-1390): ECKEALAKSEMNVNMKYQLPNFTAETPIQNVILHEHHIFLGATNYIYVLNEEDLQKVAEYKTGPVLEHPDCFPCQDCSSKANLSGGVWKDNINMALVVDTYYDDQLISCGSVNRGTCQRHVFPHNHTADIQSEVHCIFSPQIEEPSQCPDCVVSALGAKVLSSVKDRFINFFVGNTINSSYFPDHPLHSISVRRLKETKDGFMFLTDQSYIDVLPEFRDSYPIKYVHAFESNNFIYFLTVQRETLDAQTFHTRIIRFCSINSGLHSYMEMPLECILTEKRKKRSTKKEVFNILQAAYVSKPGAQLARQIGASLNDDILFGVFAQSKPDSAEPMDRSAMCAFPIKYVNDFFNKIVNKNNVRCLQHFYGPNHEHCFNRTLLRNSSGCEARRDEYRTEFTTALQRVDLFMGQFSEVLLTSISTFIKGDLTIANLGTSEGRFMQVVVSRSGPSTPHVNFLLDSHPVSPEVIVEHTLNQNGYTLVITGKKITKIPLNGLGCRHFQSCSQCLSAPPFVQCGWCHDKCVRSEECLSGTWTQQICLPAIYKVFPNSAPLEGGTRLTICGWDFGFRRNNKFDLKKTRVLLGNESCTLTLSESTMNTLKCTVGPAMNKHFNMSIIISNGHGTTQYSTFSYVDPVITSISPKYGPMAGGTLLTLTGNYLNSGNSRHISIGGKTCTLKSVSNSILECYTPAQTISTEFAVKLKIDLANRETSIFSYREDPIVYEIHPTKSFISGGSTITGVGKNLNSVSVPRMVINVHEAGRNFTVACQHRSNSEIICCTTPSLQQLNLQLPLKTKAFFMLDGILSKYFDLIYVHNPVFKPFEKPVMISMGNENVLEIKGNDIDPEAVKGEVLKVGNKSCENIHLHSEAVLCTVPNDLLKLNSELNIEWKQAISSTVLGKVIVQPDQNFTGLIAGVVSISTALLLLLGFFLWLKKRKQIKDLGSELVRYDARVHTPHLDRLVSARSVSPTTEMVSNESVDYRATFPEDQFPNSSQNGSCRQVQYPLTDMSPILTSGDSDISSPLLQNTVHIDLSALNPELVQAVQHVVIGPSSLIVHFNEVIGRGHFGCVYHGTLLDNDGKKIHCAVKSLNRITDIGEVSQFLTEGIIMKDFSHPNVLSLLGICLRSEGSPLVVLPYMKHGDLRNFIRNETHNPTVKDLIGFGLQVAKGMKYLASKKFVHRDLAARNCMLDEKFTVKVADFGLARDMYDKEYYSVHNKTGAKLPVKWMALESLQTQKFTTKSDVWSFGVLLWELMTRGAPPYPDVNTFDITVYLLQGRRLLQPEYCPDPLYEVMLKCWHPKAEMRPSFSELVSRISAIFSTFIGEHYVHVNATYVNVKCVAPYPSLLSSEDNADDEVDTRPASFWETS
Description: FIG. 4. Illustrates the degradation of Met by exemplary VHL (Examples 1 and 6) and cereblon (Examples 2 and 8) PROTACS.
Western Blot Examination of Protein Degradation.
MDA-MB-231 cells (1-1.5×10^6) were treated for 24 hours with the indicated compounds solubilized in DMSO. The cells were collected at 300 g for 3 minutes. The cells were then lysed in lysis buffer (25 mM Tris, 1% Triton, 0.25% deoxycholic acid) with Roche protease inhibitor complete cocktail and phosphatase inhibitors (10 mM sodium fluoride, 10 mM sodium pyrophosphate, 1 mM sodium orthovanadate and 20 mM β-glycerophosphate). The total protein concentrations were determined by Pierce BCA Protein Assay and 30-50 μg of protein was loaded onto 10% Tris-Glycine gels. After standard gel electrophoresis, the separated proteins were transferred to nitrocellulose by wet transfer. The immunoblots were then processed by standard procedures and incubated with the respective antibodies. Band intensities were quantified by Bio-Rad's Image Lab software.

[3] = ip, 10 mg/kg, IP 10 mg/kg, read-out: Conc. Mean
[4] = ip, 10 mg/kg, IP 10 mg/kg, read-out: Conc. Mouse 1
[5] = ip, 10 mg/kg, IP 10 mg/kg, read-out: Conc. Mouse 2
[6] = ip, 10 mg/kg, IP 10 mg/kg, read-out: Conc. Mouse 3
[7] = iv, 1 mg/kg, IV 1.0 mg/kg, read-out: Conc. Mean
[8] = iv, 1 mg/kg, IV 1.0 mg/kg, read-out: Conc. Mouse 1
[9] = iv, 1 mg/kg, IV 1.0 mg/kg, read-out: Conc. Mouse 2
[10] = iv, 1 mg/kg, IV 1.0 mg/kg, read-out: Conc. Mouse 3

For `COc1cc2c(Oc3ccc(NC(=O)C4(C(=O)Nc5ccc(F)cc5)CC4)cc3F)ccnc2cc1OCCCOCCCOCCC(=O)N[C@H](C(=O)N1C[C@H](O)C[C@H]1C(=O)NCc1ccc(-c2scnc2C)cc1)C(C)(C)C` [Example 1], the “Conc. Mouse 1” value ([1]; IV 1.0 mg/kg, 24 h) was “BLOQ”, the “Conc. Mouse 2” value ([1]; IV 1.0 mg/kg, 24 h) was “BLOQ” and the concentration at 0.25 h [1, 3] was 2200 ng/mL. The concentration at 0.25 h [1, 4] was 3420 ng/mL, the concentration at 0.25 h [1, 5] was 2180 ng/mL and the concentration at 0.25 h [1, 6] was 990 ng/mL. It also gave a concentration at 0.5 h [1, 3] of 3310 ng/mL, a concentration at 0.5 h [1, 4] of 5210 ng/mL and a concentration at 0.5 h [1, 5] of 2500 ng/mL. The concentration at 0.5 h [1, 6] was 2210 ng/mL, the concentration at 1 h [1, 3] was 5530 ng/mL and the concentration at 1 h [1, 4] was 4470 ng/mL. The concentration at 1 h [1, 5] was 9060 ng/mL, the concentration at 1 h [1, 6] was 3050 ng/mL and the concentration at 2 h [1, 3] was 7500 ng/mL. For the same molecule, the concentration at 2 h [1, 4] was 5740 ng/mL, the concentration at 2 h [1, 5] was 6210 ng/mL and the concentration at 2 h [1, 6] was 10500 ng/mL. For the same molecule, the concentration at 4 h [1, 3] was 4520 ng/mL, the concentration at 4 h [1, 4] was 6340 ng/mL and the concentration at 4 h [1, 5] was 3740 ng/mL. For the same molecule, the concentration at 4 h [1, 6] was 3460 ng/mL, the concentration at 8 h [1, 3] was 411 ng/mL and the concentration at 8 h [1, 4] was 476 ng/mL. The concentration at 8 h [1, 5] was 329 ng/mL, the concentration at 8 h [1, 6] was 429 ng/mL and the concentration at 24 h ([1]; ip, 10 mg/kg, IP 10 mg/kg, 24 h, read-out: Conc. Mean) was 12.3 ng/mL. It also gave a concentration at 24 h ([1]; ip, 10 mg/kg, IP 10 mg/kg, 24 h, read-out: Conc. Mouse 1) of 12.2 ng/mL, a concentration at 24 h ([1]; ip, 10 mg/kg, IP 10 mg/kg, 24 h, read-out: Conc. Mouse 2) of 9.43 ng/mL and a concentration at 24 h ([1]; ip, 10 mg/kg, IP 10 mg/kg, 24 h, read-out: Conc. Mouse 3) of 15.1 ng/mL. The concentration at 0.033 h [1, 7] was 2350 ng/mL, the concentration at 0.033 h [1, 8] was 2050 ng/mL and the concentration at 0.033 h [1, 9] was 2820 ng/mL. The concentration at 0.033 h [1, 10] was 2190 ng/mL, the concentration at 0.083 h [1, 7] was 1530 ng/mL and the concentration at 0.083 h [1, 8] was 1200 ng/mL. The concentration at 0.083 h [1, 9] was 1810 ng/mL, the concentration at 0.083 h [1, 10] was 1590 ng/mL and the concentration at 0.25 h [1, 7] was 691 ng/mL. For the same molecule, the concentration at 0.25 h [1, 8] was 491 ng/mL, the concentration at 0.25 h [1, 9] was 991 ng/mL and the concentration at 0.25 h [1, 10] was 590 ng/mL. It also gave a concentration at 0.5 h [1, 7] of 397 ng/mL, a concentration at 0.5 h [1, 8] of 280 ng/mL and a concentration at 0.5 h [1, 9] of 497 ng/mL. For the same molecule, the concentration at 0.5 h [1, 10] was 413 ng/mL, the concentration at 1 h [1, 7] was 143 ng/mL and the concentration at 1 h [1, 8] was 142 ng/mL. It also gave a concentration at 1 h [1, 9] of 135 ng/mL, a concentration at 1 h [1, 10] of 153 ng/mL and a concentration at 2 h [1, 7] of 70.3 ng/mL. For the same molecule, the concentration at 2 h [1, 8] was 55.5 ng/mL, the concentration at 2 h [1, 9] was 92.9 ng/mL and the concentration at 2 h [1, 10] was 62.3 ng/mL. The concentration at 4 h [1, 7] was 15.4 ng/mL, the concentration at 4 h [1, 8] was 16.8 ng/mL and the concentration at 4 h [1, 9] was 15.4 ng/mL. For the same molecule, the concentration at 4 h [1, 10] was 13.9 ng/mL, the concentration at 8 h [1, 7] was 8.6 ng/mL and the concentration at 8 h [1, 8] was 10.1 ng/mL. The concentration at 8 h [1, 9] was 10.6 ng/mL, the concentration at 8 h [1, 10] was 5.2 ng/mL and the concentration at 24 h ([1]; iv, 1 mg/kg, IV 1.0 mg/kg, 24 h, read-out: Conc. Mouse 3) was 0.971 ng/mL. The “degradation of c-Met (western blot)” value [2] was “significant protein degradation of c-Met”.
